In US11643415B1, “Rabeximod compounds” (CYXONE AB, priority 2021, dated 2023):
Converted amounts (≈) assume the structure as drawn. Counter-ions that a name gives are not always drawn. Marks after values point to notes of the source that are not given here.

Legend:
[1] = Qualitative solubility determination in water at room temperature (visual, water added until dissolved); format: physicochemical; settings: for Solubility in water: RT, estimated by adding water to the salt until dissolved; for Dissolution in water (in words): room temperature
Experimental: The solubility of the salts in water at RT was estimated by adding water to the salt until the salt dissolved. […] From the TGMS data it was estimated whether the salts are stochiometric hydrates or not.
The solubility of a selection of salts from the salt screen was estimated at room temperature in water. To approximately 2 mg of salt, solvent aliquots were added in steps of 50 μl until the material was dissolved as observed visually by the naked eye.

[2] = Quantitative (thermodynamic) solubility determination, shake-flask, LCMS against calibration line; format: physicochemical; settings: for solubility at 4 h: 25 °C, thermodynamic from solid; for Solubility in water: room temperature, suspensions stirred for 18 h, LCMS
Experimental: The thermodynamic solubility of Rabeximod free base (Form 1) was determined in 3 different USP buffers (50 mM) ranging from pH 1.2 to pH 7.4 and in water (Exp. ID: QSA21-24) by the shake-flask method at 25° C. (
Table ). Approximately 30 mg was added to approximately 1 ml of the selected buffer and the resulting suspension was equilibrated at RT for 4 hours under continuous stirring. After 15 min and after 4 h of stirring, the pH of the solution was recorded. Upon completion of the equilibration time, the suspensions were centrifuged. The solution was filtered and diluted before LCMS analysis to determine the API concentration in solution. The residue was dried under vacuum and the obtained dried solids were analyzed by XRPD. A standard LC calibration curve was prepared, and the diluted mother liquors were measured to determine the API concentration.
The solubility of the freebase (Form 1) and salts prepared by scale-up was determined in water at room temperature. Suspensions were stirred for 18 h after which the liquid phase was isolated and measured by LCMS against a calibration line. The solids were dried and measured by XRPD to determine the solid form. The lowest solubility was determined for the freebase (Form 1). The signal was lower than the calibration line and therefore the solubility was determined to be <0.005 mg/ml. […] The experimental details are described in table 5.
Table 5. Experimental details and results of the solubility determination for Rabeximod free base Form 1) as well as salt Mes1 in water and in 3 buffers with pH range 1.2-7.4. The pH of the solutions after 15 minutes and 4 hours are reported. The solubility was determined after 4h equilibration by measuring the liquid phase with LCMS against a calibration line.

[3] = Dynamic vapor sorption (hygroscopicity / moisture sorption); format: physicochemical
Experimental: Differences in hygroscopicity (moisture uptake) of the various forms of a solid material provided a measure of their relative stability at increasing relative humidity. Moisture sorption isotherms of small samples were obtained using a DVS-1 system from Surface Measurement Systems (London, UK); this instrument is suitable for use with a few milligrams of sample, with an accuracy of 0.1 μg. The relative humidity was varied during sorption-desorption-sorption (40-95-0-40% RH) at a constant temperature of 25° C. Weight equilibration per step was set at dm/dt <0.0002 mg/min for a minimum of 1 hour or maximum of 6 hours. Afterwards the sample was measured by HT-XRPD.
The hygroscopicity was classified according to the European Pharmacopoeia Hygroscopicity classification. Water uptake percentage at 25° C./80%RH (24h) is:
Change in mass <0.2%—Non-hygroscopic
Change in mass >2% & <15%—Moderately hygroscopic
Change in mass >15%—Very hygroscopic

[4] = Accelerated aging conditions (AAC), solid form remeasured by XRPD; format: physicochemical; settings: 3 days at 40° C. and 75% RH
Experimental: All solids were exposed to AAC (40° C./75% RH for 3 days) and remeasured by HT-XRPD. After that, 750 μl of a selected solvent was added. The vials were transferred to a Crystal16™ parallel crystallizer and the suspensions were stirred at 750 rpm at 50° C. for 18h after which the suspensions were subjected to centrifugation and the solids were isolated, dried under vacuum (50° C., 5 mbar, 18 h) and analyzed by HT-XRPD. The experimental conditions and results are shown below in Table 1 and Table 2 for the first and second set of experiments, respectively. The obtained XRPD patterns for the crystallinesalts made are shown in FIGS. 1 (HCl), 2 (Mao) and 3 (Mes).
Experimental conditions and results of the hydrochloride and malonic acid salt crystallization experiments. In all experiments, 750 μl of solvent was used. Counterion (Cl) abbreviations denote pure counterions whereas counterions with a number denote novel salt forms. After subjecting suspensions of API:Cl to thermocycles, the solids were isolated, dried (5 mbar, 50° C., 18 h) and analyzed by XRPD. The liquid phases were dried, and the resulting solids were analyzed by XRPD. Most solids were subjected to AAC (40° C., 75% RH, 3 days) and remeasured by XRPD.

[5] = Pharmacokinetic characterization after i.v. and p.o. administration to male CD-1 mice; format: in vivo; settings: for CL as % of mouse liver blood flow: liver blood flow 120 ml/min/kg
Experimental: IV formulations were prepared on the day of dosing. The formulations were prepared by weighing the compound into brown glass vial; on the day of dosing ClinOleic 20% intravenous fat emulsion ([…], Tamro) was added into tubes (1,5 mg/mL in 20% ClinOleic). Formulations were homogenized 5 minutes before dosing. IV formulations were administered within 5 hours after preparation.
PO formulations were prepared day before administration. The formulations were prepared by formulating the test items in PO vehicle (6 mg/ml in 0.45% (v/v) Tween 80-0.11% (w/v) sodium carboxy methylcellulose (CMC) in tap water). The suspensions were mixed with vortex and stored refrigerated (+4° C.) over night. On the day of dosing formulations were homogenized 15 minutes before dosing.
Naïve animals were used in the study (see Table 6). They were housed in individually ventilated (IVC)-cages in groups of six mice. The cages were provided with aspen bedding (4HP and PM90L, Tapvei, Estonia) and paper strands (Sizzlenest, Datesand, UK) as nesting material, and a paper pulp cabin and red polycarbonate cylinder (Datesand, UK) as cage enrichment. The temperature (22±2° C.), humidity (55±10%) and air exchange rate (75 times/h) of the IVC-cages and 12/12-h light/dark cycle (500 lux lighting on at 6 a.m., 1.5 lux lighting […].) of the animal holding room were automatically controlled and maintained. Animals were allowed to acclimatize to the site for at least five days prior to the study. Animals had ad libitum access to food (SDS diets, RM1 (E) 801002, Special Diets Services, UK) and tap water at all times, and their welfare was assured with daily observations.
Study compounds were administered via the specified route and the times of dosing and blood sampling were recorded. Within 30 min following the sampling, the blood was centrifuged for plasma separation (room temperature; 10 min; 2700 G). The plasma samples were transferred into plastic tubes, frozen and stored at −20° C. until analysis. Clinical signs and general behavior of the animals were recorded, when necessary.
The pharmacokinetic parameters were calculated using Phoenix 64 (Build 6.4.0.768) WinNonlin (version 6.4) software, using non-compartmental methods (NCA). Nominal doses were used for all animals. The terminal phase half-life (T1/2) was calculated by least-squares regression analysis of the terminal linear part of the log concentration—time curve. The area under the plasma concentration—time curve (AUC) was determined with the linear trapezoidal rule for increasing values and log trapezoidal rule for decreasing values up to the last measurable concentration (AUC0-last), and extrapolation of the terminal elimination phase to infinity was used when possible; the following criteria were used:
Minimum of 3 points (not including Cmax) used to calculate lambda (with R^2 adjusted >0.85)
T1/2 shorter than the time-span used to calculate lambda
The maximum plasma concentration (Cmax) and the time to reach Cmax (tmax) were derived directly from the plasma concentration data.

[6] = i.v., 3.00 mg/kg, male CD1 mice
[7] = male, CD-1, mouse, plasma, po, 30 mg/kg, male CD1 mice
[8] = p.o., 30.0 mg/kg, male CD1 mice
[9] = male, CD-1, mouse, plasma, iv, 3 mg/kg, male CD1 mice

SMILES: Cc1cc2nc3c4cc(Cl)ccc4n(CC(=O)NCCN(C)C)c3nc2cc1C [Rabeximod Mes]
- Solubility in water [1]: 13300 µg/mL
- Solubility ([2]; medium HCl, pH buffer 1.2, 4 h equilibration, listed as Mes (TCS35)): 0.014 mg/mL (≈ 34.2 µM)
- Solubility ([2]; medium phosphate buffer, pH buffer 6.5, 4 h equilibration, listed as Mes (TCS35)): 0.042 mg/mL (≈ 102 µM)
- Solubility ([2]; medium water, listed as Mes (TCS35)): 13.26 mg/mL (≈ 32300 µM)
- solubility at 4 h ([2]; phosphate buffer, pH 7.4, aqueous buffer, medium phosphate buffer, pH buffer 7.4, 4 h equilibration): 3 µg/mL (≈ 7.32 µM)
- Solubility in water ([2]; listed as Mes1): 13300 µg/mL (≈ 32400 µM)
- Water uptake ([3]; DVS, 25° C.): 12.2%
- Form after DVS ([3]; sorption-desorption-sorption 40-95-0-40% RH, 25° C., HT-XRPD): Mes1
- Salt form after AAC [4]: Mes
- AUC0-inf [5, 6]: 2320 ng·h/mL
- T1/2 [5, 6]: 9.80 h
- Time of peak plasma concentration (tmax) [5, 6]: 0.0833 h
- Vss [5, 6]: 15.9 L/kg
- clearance [5, 6]: 21.5 mL/min/kg
- mean C0 [5, 6]: 507 ng/mL
- mean Cmax [5, 6]: 383 ng/mL
- CL as % of mouse liver blood flow ([5]; i.v., 3.00 mg/kg): 17.9%
- half-life [5, 7]: 8.93 h
- AUC0-last [5, 8]: 11 600 h*ng/ml
- Time of peak plasma concentration (tmax) [5, 8]: 2.00 h
- mean Cmax [5, 8]: 707 ng/mL

SMILES: Cc1cc2nc3c4cc(Cl)ccc4n(CC(=O)NCCN(C)C)c3nc2cc1C [Rabeximod, 9-Chloro-2,3-dimethyl-6-(N,N-dimethylaminoethylamino-2-oxoethyl)-6H-indolo-[2,3-b]quinoxaline]
- Dissolution in water (in words) [1]: close to insoluble in water
- Dissolution in water (in words) ([1]; listed as freebase): no sign of dissolution
- solubility at 4 h ([2]; HCl buffer, pH 1.2, simulated gastric fluid, medium HCl, pH buffer 1.2, 4 h equilibration): 13 µg/mL (≈ 31.7 µM)
- Solubility ([2]; medium phosphate buffer, pH buffer 6.5, 4 h equilibration, listed as Form 1 (SM)): 0.005* mg/ml
- Solubility ([2]; medium phosphate buffer, pH buffer 7.4, 4 h equilibration, listed as Form 1 (SM)): <LOD
- Solubility ([2]; medium water, listed as Form 1 (SM)): <0.005 mg/mL
- Solubility in water ([2]; listed as freebase): < 5 µg/mL
- Physical stability upon exposure to relative humidity ([3]; relative humidity values between 0-95%): remained physically stable
- Hygroscopicity classification (European Pharmacopoeia) ([3]; water uptake at 25° C./80%RH): slightly hygroscopic
- AUC0-inf [5, 6]: 681 ng·h/mL
- Vss [5, 6]: 49.4 L/kg
- clearance [5, 6]: 73.4 mL/min/kg
- mean Cmax [5, 6]: 150 ng/mL
- CL as % of mouse liver blood flow ([5]; i.v., 3.00 mg/kg): 61.2%
- Tmax ([5]; male, CD-1, mouse, plasma, iv, 3 mg/kg, i.v., 3.00 mg/kg, male CD1 mice, read-out: Time of peak plasma concentration (tmax)): 5 min
- C0 [5, 9]: 351 ng/mL
- half-life [5, 9]: 8.99 h
- AUC(0-t) [5, 7]: 8330 ng·h/mL
- Cmax [5, 7]: 728 ng/mL
- Time of peak plasma concentration (tmax) [5, 8]: 4.00 h

SMILES: Cc1cc2nc3c4cc(Cl)ccc4n(CC(=O)NCCN(C)C)c3nc2cc1C [Rabeximod Mao]
- Solubility in water [1]: 5500 to 10200 µg/mL
- Solubility ([2]; medium water, listed as Mao (TCS161)): 5.26 mg/mL (≈ 12800 µM)
- Solubility in water ([2]; listed as Mao1): 5300 µg/mL (≈ 12900 µM)
- Salt form after AAC [4]: Mao
- AUC0-inf [5, 6]: 1870 ng·h/mL
- T1/2 [5, 6]: 8.43 h
- Time of peak plasma concentration (tmax) [5, 6]: 0.0833 h
- Vss [5, 6]: 16.9 L/kg
- clearance [5, 6]: 26.8 mL/min/kg
- mean C0 [5, 6]: 390 ng/mL
- mean Cmax [5, 6]: 355 ng/mL
- CL as % of mouse liver blood flow ([5]; i.v., 3.00 mg/kg): 22.3%
- AUC0-last [5, 8]: 11 400 h*ng/ml
- Time of peak plasma concentration (tmax) [5, 8]: 0.17 h
- mean Cmax [5, 8]: 1140 ng/mL

SMILES: Cc1cc2nc3c4cc(Cl)ccc4n(CC(=O)NCCN(C)C)c3nc2cc1C [Rabeximod HCl]
- Solubility in water [1]: 2000 to 5700 µg/mL
- Solubility ([2]; medium water, listed as HCI (TCS160)): 5.45 mg/mL
- Solubility in water ([2]; listed as HCl1): 5500 µg/mL
- Salt form after AAC [4]: HCl
- AUC0-inf [5, 6]: 2220 ng·h/mL
- T1/2 [5, 6]: 8.43 h
- Time of peak plasma concentration (tmax) [5, 6]: 0.0833 h
- Vss [5, 6]: 14.2 L/kg
- clearance [5, 6]: 22.6 mL/min/kg
- mean C0 [5, 6]: 600 ng/mL
- mean Cmax [5, 6]: 454 ng/mL
- CL as % of mouse liver blood flow ([5]; i.v., 3.00 mg/kg): 18.8%
- AUC0-last [5, 8]: 13 700 h*ng/ml
- Time of peak plasma concentration (tmax) [5, 8]: 4.00 h
- mean Cmax [5, 8]: 893 ng/mL
